Experimental data: patent publication US4492693A, “Benzothienylglycyl cephalosporin derivatives” (priority 1983, dated 1985)
Where two headings read alike, the source gives them in different places.

What was measured:
Staph. aureus [1] = assay: Agar Dilution MIC (Table I); type: cell-based; conditions: Staphylococcus aureus
Bacteroides fragilis [2] = assay: Susceptibility of Anaerobic Bacteroides Isolates by the Agar-Dilution Method (Table III); type: cell-based; conditions: 24 h
From the text: (§1) A typical and preferred compound provided by this invention is 7-(3-benzothienyl)glycylamido-3-methyl-3-cephem-4-carboxylic acid, the compound illustrated in Example 9. The antibacterial activity of this compound has been determined in standard in vitro agar dilution assays against a variety of gram positive and gram negative microorganism. The following Tables present typical minimum inhibitory concentrations (MIC's) in μg/ml for several compounds of the invention when evaluated against the indicated microorganisms. MIC's for several known compounds are also presented for comparison.
(§2) Susceptibility of Anaerobic Bacteroides Isolates by the
(§3) Agar-Dilution Method MIC (μg/ml) readings 24 hrs. after incubation

Bacteroides corrodens = assay: as above; type: cell-based; conditions: Eikenella corrodens; strain 1874; readings 24 hrs. after incubation
From the text: as §1, §2, §3

[3] = system: Bacteroides thetaiotaomicron; assay: as above; type: cell-based; conditions: 24 h
From the text: as §1, §2, §3

Strep. D = assay: Agar Dilution MIC (Table I); type: cell-based
Summary of the method: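 MIC values (μg/ml) are taken from standard in vitro agar dilution testing.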

Staph. epi [4] = assay: Agar Dilution MIC (Table I); type: cell-based; conditions: read-out: Agar Dilution MIC
Staph. epi [5] = assay: Expanded Spectrum MIC (Table II); type: cell-based
From the text: as §1
(§4) Expanded Spectrum MIC (μg/ml)

Staph. aureus [6] = assay: Expanded Spectrum MIC (Table II); type: cell-based; conditions: Staphylococcus aureus
From the text: as §1, §4

H. influenzae = assay: Expanded Spectrum MIC (Table II); type: cell-based; conditions: Haemophilus influenzae
From the text: as §1, §4

Strep. A = assay: Agar Dilution MIC (Table I); type: cell-based; conditions: strain C203; read-out: Agar Dilution MIC
H. influ. = assay: Agar Dilution MIC (Table I); type: cell-based; conditions: read-out: Agar Dilution MIC
E. coli = assay: Agar Dilution MIC (Table I); type: cell-based; conditions: Escherichia coli
Klebsiella = assay: Agar Dilution MIC (Table I); type: cell-based; conditions: for MIC: Klebsiella, read-out: Agar Dilution MIC
Strep. PN = assay: Agar Dilution MIC (Table I); type: cell-based; conditions: strain PARK
pKa (66% aqueous DMF) = type: physicochemical
[7] = system: β-lactamase, organism PS185; assay: Stability to β-lactamase (Table V); type: biochemical; conditions: lower numbers mean greater stability
[8] = system: β-lactamase, organism 265A; assay: Stability to β-lactamase (Table V); type: biochemical; conditions: lower numbers mean greater stability
[9] = system: β-lactamase, organism TEM; type: biochemical; conditions: lower numbers mean greater stability
[10] = system: β-lactamase, organism 1082E; assay: Stability to β-lactamase (Table V); type: biochemical; conditions: lower numbers mean greater stability
Bacteroides fragilis [11] = assay: Expanded anaerobic Spectrum MIC (Table IV); type: cell-based
[12] = system: β-lactamase, organism 1313G; assay: Stability to β-lactamase (Table V); type: biochemical; conditions: lower numbers mean greater stability
Haemophilus influenzae = assay: Expanded H. influenzae Spectrum MIC (Table IV); type: cell-based
[13] = read-out: MIC mean, mean over strains

CC1=C(C(=O)O)N2C(=O)C(NC(=O)[C@H](N)c3csc4c(F)cccc34)C2SC1 (stereo partly drawn) [Ex. 20, D-7-(7-Fluoro-3-benzothienyl)glycylamido-3-methyl-3-cephem-4-carboxylic acid]
16 µg/mL: MIC (Staph. aureus [1]; strain V41, read-out: Agar Dilution MIC) | MIC (Bacteroides fragilis [2]; strain 9, readings 24 hrs. after incubation) | MIC (Bacteroides fragilis [2]; strain 106, readings 24 hrs. after incubation) | MIC (Bacteroides fragilis [2]; strain 1877, readings 24 hrs. after incubation) | MIC ([3]; strain 1438, readings 24 hrs. after incubation) | MIC (Staph. epi [5]; strain EPI1) | MIC (H. influenzae; strain C.L.)
128 µg/mL: MIC (Staph. aureus [1]; strain X400, read-out: Agar Dilution MIC) | MIC (Bacteroides fragilis [2]; strain 111, readings 24 hrs. after incubation) | MIC (Strep. D; read-out: Agar Dilution MIC) | Agar Dilution MIC (Strep. D; strain 2041) | MIC (E. coli; strain EC14) | MIC (E. coli; strain N10) | MIC (E. coli; strain TEM) | MIC (Klebsiella) | Agar Dilution MIC (Klebsiella; strain X68)
64 µg/mL: MIC (Bacteroides fragilis [2]; strain 103, readings 24 hrs. after incubation) | MIC (Bacteroides corrodens) | MIC (H. influenzae; strain M366) | MIC (H. influenzae; strain R465) | MIC (H. influenzae; strain STEL)
8 µg/mL: MIC (Staph. aureus [1]; read-out: Agar Dilution MIC, strain S13E) | MIC (Bacteroides fragilis [2]; strain 104, readings 24 hrs. after incubation) | MIC (Bacteroides fragilis [2]; strain 108, readings 24 hrs. after incubation) | MIC (Staph. epi [5]; strain 270) | MIC (H. influenzae; strain HESS)
2 µg/mL: MIC (Staph. epi [4]; strain 222) | MIC (Staph. epi [5]; strain 219) | MIC (Staph. aureus [6]; strain S224) | MIC (Staph. aureus [6]; strain S225) | MIC (Staph. aureus [6]; strain S226) | MIC (Staph. aureus [6]; strain S227) | MIC (Staph. aureus [6]; strain S228) | MIC (Staph. aureus [6]; strain S229) | MIC (Staph. aureus [6]; strain S230) | MIC (Staph. aureus [6]; strain S234) | MIC (Staph. aureus [6]; strain S237) | MIC (Staph. aureus [6]; strain S239) | MIC (H. influenzae; strain 105) | MIC (H. influenzae; strain 158) | MIC (H. influenzae; strain 164) | MIC (H. influenzae; strain 171) | MIC (H. influenzae; strain 4842) | MIC (H. influenzae; strain M370) | MIC (H. influenzae; strain M371)
4 µg/mL: MIC (Staph. epi [4]; strain EPI1) | MIC (Staph. epi [5]; strain 269) | MIC (Staph. epi [5]; strain 285) | MIC (Staph. aureus [6]; strain S238) | MIC (H. influenzae; strain 169) | MIC (H. influenzae; strain 312) | MIC (H. influenzae; strain 1930) | MIC (H. influ.; strain C.L.) | MIC (Klebsiella; strain X26)
0.5 µg/mL: MIC (Staph. aureus [1]; strain X1.1, read-out: Agar Dilution MIC) | MIC (H. influ.; strain 76) | MIC (Strep. PN)
32 µg/mL: MIC (Bacteroides fragilis [2]; strain 107, readings 24 hrs. after incubation) | MIC (Bacteroides fragilis [2]; strain 110, readings 24 hrs. after incubation) | MIC ([3]; strain 1900A, readings 24 hrs. after incubation)
0.125 µg/mL: MIC (Strep. A)
1 µg/mL: MIC (Staph. epi [5]; strain 286) | MIC (Staph. aureus [6]; strain S231) | MIC (H. influenzae; strain 76) | MIC (H. influenzae; strain 1683)

C=CCOC(=O)NC(C(=O)O)c1csc2ccccc12 (centres unmarked) [N-Allyloxycarbonyl-(3-benzothienyl)glycine]
5.7: pKa (pKa (66% aqueous DMF))

N[C@@H](C(=O)N[C@@H]1C(=O)N2C(C(=O)O)=C(Cl)CS[C@H]12)c1ccccc1 [cefaclor]
2 µg/mL: MIC (Haemophilus influenzae; read-out: MIC Geometric Mean, geometric mean over strains) | MIC (Haemophilus influenzae; strain 101) | MIC (Haemophilus influenzae; strain 103) | MIC (Haemophilus influenzae; strain 106) | MIC (Haemophilus influenzae; strain 107) | MIC (Haemophilus influenzae; strain 109) | MIC (Haemophilus influenzae; strain 112) | MIC (Haemophilus influenzae; strain 113)
71: Stability to β-lactamase [7]
4605: Stability to β-lactamase [12]
138: Stability to β-lactamase [8]
65: Stability to β-lactamase [10]
> 64 µg/mL: MIC (Bacteroides fragilis [11]; strain 10750) | MIC (Bacteroides fragilis [11]; strain 10774) | MIC (Bacteroides fragilis [11]; strain 10837)
1 µg/mL: MIC (Haemophilus influenzae; strain 104) | MIC (Haemophilus influenzae; strain 105) | MIC (Haemophilus influenzae; strain 108) | MIC (Haemophilus influenzae; strain 110) | MIC (Haemophilus influenzae; strain 111) | MIC (Haemophilus influenzae; strain 114)
3 µg/mL: MIC (Haemophilus influenzae; [13])
16 µg/mL: MIC (Bacteroides fragilis [11]; strain 10683) | MIC (Bacteroides fragilis [11]; strain 10732) | MIC (Bacteroides fragilis [11]; strain 107266) | MIC (Bacteroides fragilis [11]; strain 107268) | MIC (Haemophilus influenzae; strain 102)
23: Stability to β-lactamase [9]
32 µg/mL: MIC (Bacteroides fragilis [11]; read-out: MIC Geometric mean, geometric mean over strains) | MIC (Bacteroides fragilis [11]; strain 10695) | MIC (Bacteroides fragilis [11]; strain 108133)
39 µg/mL: MIC (Bacteroides fragilis [11]; [13])
64 µg/mL: MIC (Bacteroides fragilis [11]; strain 180-821) | MIC (Bacteroides fragilis [11]; strain 10668) | MIC (Bacteroides fragilis [11]; strain 10817)
